Values joined by “and” are separate entries in the source; they are usually repeats but may differ in a detail not shown here. Equal entries are not always repeated. Structures can show the parent of a compound that is named as a salt. Where two headings read alike, the source gives them in different places.
Experiment: Pharmacokinetic study in mice (plasma and brain), with estimated free drug concentrations
Type: in vivo, mouse
Conditions: for Total concentration: Mice; for CLf / T1/2 / Cmax / AUC(0-inf) / AUC(0-t) / Tmax / half-life / Vd/F: male C57BL/6 mice; for concentration at 0.083 h / concentration at 0.25 h / concentration at 0.5 h / concentration at 1 h / concentration at 2 h / Cmax / AUC(0-inf) / AUC(0-t): male, C57BL/6, mouse; for concentration at 0.083 h / concentration at 0.25 h / concentration at 0.5 h / concentration at 1 h / concentration at 2 h / Cmax / AUC(0-inf) / AUC(0-t) / Tmax / half-life / Vd/F: sc; for Tmax / half-life / Vd/F: mouse; for half-life: read-out: T1/2z (converted); for Vd/F: read-out: VZ/F
[1] = 8 h, mice, 10 mg/kg s.c., individual animals, 10 mg/kg
[2] = 24 h, mice, 10 mg/kg s.c., individual animals, 10 mg/kg
[3] = brain, 10 mg/kg, mice, 10 mg/kg s.c., individual animals, read-out: Brain Concentration (total)
[4] = brain, 10 mg/kg, mice, 10 mg/kg s.c., individual animals, read-out: Free Brain Concentration
[5] = brain, 10 mg/kg, single s.c. 10 mg/kg
[6] = plasma, 10 mg/kg, mice, 10 mg/kg s.c., individual animals, read-out: Free Plasma Concentration
[7] = plasma, 10 mg/kg, mice, 10 mg/kg s.c., individual animals, read-out: Plasma Concentration (total)
[8] = plasma, 10 mg/kg, s.c. 10 mg/kg
[9] = plasma, 10 mg/kg, single s.c. 10 mg/kg

With `CCC1CC2CC3c4[nH]c5ccc(O)cc5c4CCN(C2)C13` (stereo not drawn) [Noribogaine, Noribogaine hydrochloride] the “Free Plasma Concentration” value [1] was 47 nM and 125 nM and 114 nM, the “Plasma Concentration (total)” value [1] was 0.26 µmol/L and 0.24 µmol/L and 0.1 µmol/L and the “Brain Concentration (total)” value [2] was 0.03 µmol/L and 0 µmol/L (2×). For the same compound, the “Free Brain Concentration” value [2] was 0.004 µmol/L and 0 µmol/L (2×), the “Free Plasma Concentration” value [2] was 2 nM and 4 nM and 0 nM and the “Plasma Concentration (total)” value [2] was 0.01 µmol/L and 0 µmol/L (2×). It also gave a Total concentration (Brain, 10 mg/kg s.c.) of 17.18 µmol/L, a CLf (Brain, single s.c. 10 mg/kg) of 13.76 mL/min/kg and a T1/2 (Brain, single s.c. 10 mg/kg) of 1.71 h. The Total concentration (Plasma, 10 mg/kg s.c.) was 6.68 µmol/L, the CLf (Plasma, single s.c. 10 mg/kg) was 31.87 mL/min/kg and the T1/2 (Plasma, single s.c. 10 mg/kg) was 2.76 h. For the same compound, the CLf (brain, s.c. 10 mg/kg) was 13.76 mL/min/kg, the concentration at 0.083 h [3] was 6750 nM and the concentration at 0.083 h [4] was 797 nM. The concentration at 0.25 h [3] was 8040 nM, the concentration at 0.25 h [4] was 949 nM and the concentration at 0.5 h [3] was 14600 nM. The concentration at 0.5 h [4] was 1720 nM, the concentration at 1 h [3] was 11700 nM and the concentration at 1 h [4] was 1380 nM. It also gave a concentration at 2 h [3] of 7820 nM, a concentration at 2 h [4] of 923 nM and a Cmax (brain, 10 mg/kg, Brain (brain conc. as ng/g), single s.c. 10 mg/kg) of 5090 ng/mL. The AUC(0-inf) (brain, 10 mg/kg, s.c. 10 mg/kg) was 12100 ng·h/mL, the AUC(0-t) (brain, 10 mg/kg, s.c. 10 mg/kg) was 11700 ng·h/mL and the Cmax (brain, 10 mg/kg, s.c. 10 mg/kg) was 5090 ng/g. The AUC(0-inf) [5] was 12100 ng·h/mL, the AUC(0-t) [5] was 11700 ng·h/mL and 39.4 µM·h and the Cmax [5] was 17200 nM. The concentration at 0.25 h [6] was 2910 nM, the concentration at 0.25 h [7] was 4840 nM and the concentration at 0.5 h [6] was 3340 nM. It also gave a concentration at 0.5 h [7] of 5360 nM, a concentration at 1 h [6] of 1960 nM and a concentration at 1 h [7] of 4030 nM. The concentration at 2 h [6] was 1280 nM, the concentration at 2 h [7] was 3430 nM and the AUC(0-inf) [8] was 5230 ng·h/mL. For the same compound, the AUC(0-t) [8] was 5220 ng·h/mL, the Cmax [8] was 1980 ng/mL and the AUC(0-inf) [9] was 5230 ng·h/mL. For the same compound, the AUC(0-t) [9] was 5220 ng·h/mL and 17.6 µM·h, the Cmax [9] was 1980 ng/mL and 6.68 µM and the Tmax (brain, s.c. 10 mg/kg) was 0.5 h. For the same compound, the half-life (brain, s.c. 10 mg/kg) was 1.71 h, the Vd/F (brain, s.c. 10 mg/kg) was 2.04 L/kg and the Tmax (plasma, s.c. 10 mg/kg) was 0.5 h. For the same compound, the half-life (plasma, s.c. 10 mg/kg) was 2.76 h, the Vd/F (plasma, s.c. 10 mg/kg) was 7.62 L/kg and the CLf (plasma, s.c. 10 mg/kg) was 31.87 mL/min/kg.
